Measurements taken from the C3SDB collision cross section collection.
Several values for one entry are separate records, joined by “and”; a condition that tells them apart may be missing. Identical values can stand only once.

What was measured:
[1] = instrument: DT, stepped-field
[2] = instrument: DT, single field, calibrated with Agilent tune mix (Agilent)

Row | Structure (SMILES) | collision cross section (N2) ([1]; [M+H]+) | collision cross section (N2) ([1]; [M+Na]+) | other results
1 | Cn1cnc(CCN)c1 [1-Methylhistamine] | 122.56 Å² | – | collision cross section (N2) ([2]; [M+H]+): 121.3 Å²
2 | Cn1cncc1CCN [3-Methylhistamine] | 126.53 Å² | – | collision cross section (N2) ([2]; [M+H]+): 123.8 Å²
3 | C[C@]12CCC(=O)C=C1CC[C@@H]1[C@@H]2CC[C@]2(C)C(=O)CC[C@@H]12 [Androstenedione] | 183.95 Å² | 204.73 Å² | collision cross section (N2) ([2]; [M+H]+): 173.3 Å²
4 | C[N+](C)(C)CCOP(=O)([O-])OP(=O)(O)OC[C@H]1O[C@@H](n2ccc(N)nc2=O)[C@H](O)[C@@H]1O [Cytidine 5'-diphosphocholine] | 198.86 Å² | 208.98 Å² | collision cross section (N2) ([2]; [M+H]+): 197.6 Å²; collision cross section (N2) ([2]; [M-H]-): 200.64 Å²
5 | OC[C@H]1O[C@@H](O[C@H]2[C@H](O)[C@@H](O)[C@H](O)O[C@@H]2CO)[C@H](O)[C@@H](O)[C@H]1O [D-Lactose] | – | 178.83 Å² | collision cross section (N2) ([2]; [M+Na]+): 175.1 Å²
6 | N[C@@H](CCC(=O)N[C@@H](CS)C(=O)NCC(=O)O)C(=O)O [Glutathione] | – | 168.23 Å² | collision cross section (N2) ([2]; [M+H]+): 167.4 Å²
7 | OC[C@H]1O[C@H](OC[C@H]2OC(O)[C@H](O)[C@@H](O)[C@@H]2O)[C@H](O)[C@@H](O)[C@@H]1O (stereo partly drawn) [Isomaltose] | – | 178.02 Å² | collision cross section (N2) ([2]; [M+Na]+): 177.3 Å²; collision cross section (N2) ([2]; [M-H]-): 171.96 Å²
8 | O=c1c(O)c(-c2ccc(O)cc2)oc2cc(O)cc(O)c12 [Kaempferol] | 165.99 Å² | 187.2 Å² | collision cross section (N2) ([2]; [M+H]+): 162.9 Å²; collision cross section (N2) ([2]; [M-H]-): 160.32 Å²
9 | CCCC[C@H](N)C(=O)O [L-Norleucine] | 142.63 Å² | – | collision cross section (N2) ([2]; [M-H]-): 129.02 Å²
10 | C[C@@H]1OC(O)[C@H](O)[C@H](O)[C@H]1O (stereo partly drawn) [L-Rhamnose] | – | 146.3 Å² | –
11 | O=C(O)[C@@H](O)[C@@H](O)[C@@H](O)CO [L-Ribonic Acid] | – | 143.47 Å² | –
12 | C[Se]CC[C@H](N)C(=O)O [L-Selenomethionine] | 137.67 Å² | – | –
13 | N[C@@H](Cc1c[nH]c2ccccc12)C(=O)O [L-Tryptophan] | 154.22 Å² | – | –
14 | CC(C)[C@H](N)C(=O)O [L-Valine] | 134.28 Å² | 144.07 Å² | –
15 | CCCCCCCC/C=C\CCCCCCCC(=O)OC[C@@H](O)COP(=O)([O-])OCC[N+](C)(C)C [LPC 18:1] | – | 237.34 Å² | –
16 | CCCCCCCCCCCCCCCC/C=C\OC[C@@H](O)COP(=O)([O-])OCC[N+](C)(C)C [LPC(p18:0)] | 236.8 Å² | 238.37 Å² | –
17 | OC[C@H]1O[C@@H](O[C@@H]2[C@@H](CO)O[C@](O)(CO)[C@H]2O)[C@H](O)[C@@H](O)[C@H]1O [Lactulose] | – | 180.1 Å² | –
18 | OC[C@H]1O[C@H](O[C@H]2[C@H](O)[C@@H](O)[C@@H](O[C@H]3[C@H](O)[C@@H](O)C(O)O[C@@H]3CO)O[C@@H]2CO)[C@H](O)[C@@H](O)[C@@H]1O (stereo partly drawn) [Maltotriose] | – | 212.54 Å² | collision cross section (N2) ([2]; [M+Na]+): 212.7 Å²
19 | COc1cc(-c2[o+]c3cc(O)cc(O)c3cc2O)cc(OC)c1O [Malvidin] | – | – | collision cross section (N2) ([1]; [M]+): 178.55 Å²
20 | O=c1c2cc(O)c(O)cc2oc2cc(O)c([C@@H]3O[C@H](CO)[C@@H](O)[C@H](O)[C@H]3O)c(O)c12 [Mangiferin] | 196.62 Å² | – | –
21 | C=CCc1ccc(OC)c(OC)c1 [Methyleugenol] | 138.94 Å² | 160.36 Å² | –
22 | CC(=O)N[C@H](Cc1c[nH]c2ccccc12)C(=O)O [N-Acetyl-D-tryptophan] | 155.67 Å² | 162.74 Å² | –
23 | CC(=O)N[C@@H](CC(=O)O)C(=O)O [N-Acetyl-L-aspartic Acid] | – | 143.7 Å² | –
24 | CSCC[C@H](NC=O)C(=O)O [N-Formyl-L-methionine] | – | 149.53 Å² | –
25 | COc1ccc2cc([C@H](C)C(=O)O)ccc2c1 [Naproxen] | 154.83 Å² | 163.87 Å² | –

Row | Structure (SMILES) | collision cross section (N2) ([1]; [M+H]+) | collision cross section (N2) ([1]; [M+Na]+) | other results
26 | NC(=O)c1ccc[n+]([C@@H]2O[C@H](COP(=O)([O-])O)[C@@H](O)[C@H]2O)c1 [Nicotinamide Mononucleotide] | 167.13 Å² | – | –
27 | N[C@@H](CCOC(=O)CCC(=O)O)C(=O)O [O-Succinyl-L-homoserine] | 147.46 Å² | 147.22 Å² | –
28 | O=C(O)c1cc(=O)[nH]c(=O)[nH]1 [Orotic Acid] | 138.85 Å² | 181.87 Å² | –
29 | CCCCCCCC/C=C/CCCCCCCC(=O)OC[C@H](COP(=O)(O)OC[C@@H](O)CO)OC(=O)CCCCCCC/C=C/CCCCCCCC [PG(18:1/18:1)] | 294.47 Å² and 294.81 Å² | 285.26 Å² and 289.31 Å² | –
30 | CCCCCCCCCCCCCCCC(=O)O [Palmitic Acid] | – | 185.22 Å² | –
31 | CC(=O)[C@H]1CC[C@H]2[C@@H]3CC=C4C[C@@H](O)CC[C@]4(C)[C@H]3CC[C@]12C [Pregnenolone] | 177.25 Å² | 216.16 Å² | collision cross section (N2) ([2]; [M+H]+): 174 Å²; collision cross section (N2) ([2]; [M-H]-): 182.86 Å²
32 | CCCCC[C@H](O)/C=C/[C@H]1C(=O)C[C@H](O)[C@@H]1C/C=C\CCCC(=O)O [Prostaglandin D2] | – | 196.63 Å² | collision cross section (N2) ([2]; [M+Na]+): 192.4 Å²; collision cross section (N2) ([2]; [M-H2O-H]-): 186.17 Å²
33 | CCCCC[C@@H](/C=C/[C@@H]1[C@@H](C/C=C\CCCC(=O)O)[C@@H]2C[C@H]1OO2)OO [Prostaglandin G2] | – | 199.3 Å² | –
34 | COc1cc(O)c2c(=O)c(-c3ccc(O)cc3)coc2c1 [Prunetin] | 166.26 Å² | 181.44 Å² | –
35 | O=C(O)c1cccnc1C(=O)O [Quinolinic Acid] | 138.98 Å² | – | –
36 | CC/C=C\C[C@H](O)/C=C/C=C\C=C\C=C\[C@@H](O)[C@@H](O)C/C=C\CCC(=O)O [Resolvin D1] | – | 197.87 Å² | –
37 | Cc1cc2nc3c(=O)[nH]c(=O)nc-3n(C[C@H](O)[C@H](O)[C@H](O)COP(=O)(O)O)c2cc1C [Riboflavin 5'-Monophosphate] | 201.48 Å² | 210.66 Å² | –
38 | Cc1cc2nc3c(=O)[nH]c(=O)nc-3n(C[C@H](O)[C@H](O)[C@H](O)CO)c2cc1C [Riboflavin] | 192.43 Å² | 199.4 Å² | –
39 | C=C(C)[C@H]1Cc2c(ccc3c2O[C@@H]2COc4cc(OC)c(OC)cc4[C@@H]2C3=O)O1 [Rotenone] | 199.63 Å² | 213.17 Å² | –
40 | COc1ccc(-c2cc(=O)c3c(OC)c(OC)c(OC)c(OC)c3o2)cc1 [Tangeritin] | 187.9 Å² | 208.15 Å² | –
41 | CN(C)[C@@H]1C(=O)C(C(N)=O)=C(O)[C@@]2(O)C(=O)C3=C(O)c4c(O)cccc4[C@@](C)(O)[C@H]3C[C@@H]12 [Tetracycline] | 198.48 Å² | 212.5 Å² | –
42 | CCCCC[C@H](O)/C=C/[C@H]1OC(O)C[C@H](O)[C@@H]1C/C=C\CCCC(=O)O (stereo partly drawn) [Thromboxane B2] | – | 202.08 Å² | –
43 | CC(C)[C@]12CC(=O)[C@H](C)[C@H]1C2 [Thujone] | 141.82 Å² | – | –
44 | NC(=O)[C@@H]1CCCN1C(=O)[C@H](Cc1cnc[nH]1)NC(=O)[C@@H]1CCC(=O)N1 [Thyrotropin-releasing hormone] | 181 Å² | 184.12 Å² | –
45 | O=c1ccc2ccc(O)cc2o1 [Umbelliferone] | – | 154.46 Å² | –
46 | O=c1ccn([C@@H]2O[C@H](COP(=O)(O)O)[C@@H](O)[C@H]2O)c(=O)[nH]1 [Uridine 5'-Monophosphate] | 169.81 Å² | 175.14 Å² | –
47 | O=C(O)/C=C/c1cnc[nH]1 [Urocanate] | 137.54 Å² | – | –
48 | CC(C)=CCC/C(C)=C/CC/C(C)=C/CC/C(C)=C/CC1=C(C)C(=O)c2ccccc2C1=O [Vitamin K2] | 198.66 Å² | – | –
49 | C[C@@H]1NC(=O)N[C@@H]1CCCCCC(=O)O [d-Desthiobiotin] | 145.78 Å² | 159.12 Å² | –
50 | O=P(O)(O)OC[C@H](O)CO [sn-Glycerol 3-phosphate] | – | 142.16 Å² | –
